System: allergens
Experiment: Evaluation of oxidants and antimicrobials for allergen deactivating ability
Details: very dilute solution, on the order of 40-80 ppm
Text: Presumably the low levels of oxidant are still able to break up the allergen proteins, rendering them biologically inert.

## OCl [hypochlorous acid]
  Allergen deactivating ability: effectively deactivate allergens
